This is an account of results in US6608086B2, “Dihydropyridines and new uses thereof” (Synaptic Pharmaceutical Corporation, priority 1993, dated 2003).

Structures can show the parent of a compound that is named as a salt.

The test system of one data set is human prostatic tissue. The data set can be described thus: In vitro human prostate model: block of phenylephrine-induced contraction of human prostatic tissue. It is filed as cell-based. To be noted: block of phenylephrine-induced contraction of human prostate. From the text:
The protocol for these experiments is given below.
Functional Properties of α1 Antagonists in the Human Prostate
The efficacy of α1 adrenergic antagonists for the treatment of benign prostatic hyperplasia (BPH) is related to their ability to elicit relaxation of prostate smooth muscle. An index of this efficacy can be obtained by determining the potency of al antagonists to antagonize the contraction of human prostatic tissue induced by an α1 agonist “in vitro”. Furthermore, by comparing the potency of subtype selective α1 antagonists in binding assays using human α1 receptors with their potency to inhibit agonist-induced smooth muscle contraction, it is possible to determine which of the α1 adrenergic receptor subtypes is involved in the contraction of prostate smooth muscle.
Prostatic adenomas were obtained at the time of surgery from patients with symptomatic BPH. […] The baths were maintained at 37° C. and continuously oxygenated with 5% CO2 and 95% O2. Isometric tension was measured with a Grass Instrument FT03 force transducer interfaced with a computer. Tissue strips were contracted with varying concentrations of phenylephrine after incubating for 20 minutes in the absence and presence of at least three different concentrations of antagonist. Dose-response curves for phenylephrine were constructed, and the antagonist potency (pA2) was estimated by the dose-ratio method. The concentration of some antagonists in the tissue bath was assessed by measuring the displacement of [3H]prazosin by aliquots of the bath medium, using membrane preparations of the cloned human α1C receptor. This control was necessary to account for losses of antagonist due to adsorption to the tissue bath and/or metabolism during the time the antagonists were equilibrated with the prostate tissue.

Data set [1] has as its target T1, α1A Human Adrenergic Receptor (Homo sapiens, UniProt P25100).
T1 construct: The entire coding region of α1A (1719 bp); expressed in transfected cells
T1 sequence (P25100 1-572): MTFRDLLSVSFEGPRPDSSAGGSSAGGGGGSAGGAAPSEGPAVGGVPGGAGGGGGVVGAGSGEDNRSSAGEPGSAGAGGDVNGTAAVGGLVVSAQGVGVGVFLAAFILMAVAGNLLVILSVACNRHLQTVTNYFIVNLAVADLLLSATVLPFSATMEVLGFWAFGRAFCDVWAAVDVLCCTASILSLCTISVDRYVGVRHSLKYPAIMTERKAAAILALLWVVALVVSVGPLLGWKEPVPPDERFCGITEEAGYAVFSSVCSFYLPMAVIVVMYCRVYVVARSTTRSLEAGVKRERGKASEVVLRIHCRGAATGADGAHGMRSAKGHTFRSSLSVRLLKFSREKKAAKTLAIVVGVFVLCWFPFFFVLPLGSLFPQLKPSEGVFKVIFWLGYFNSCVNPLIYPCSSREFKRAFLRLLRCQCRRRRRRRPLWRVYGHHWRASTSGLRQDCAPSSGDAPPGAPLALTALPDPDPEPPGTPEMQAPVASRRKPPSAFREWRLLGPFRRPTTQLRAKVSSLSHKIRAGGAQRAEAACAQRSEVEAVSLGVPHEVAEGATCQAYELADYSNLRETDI
As to the kind of experiment: Radioligand binding, [3H]prazosin, cloned human α1A adrenergic receptor. The following applies: pKi alpha-1 1a. In a few lines: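 Membranes from LM(tk−) cells transfected with cloned human α1A receptor, prepared in 50 mM Tris-HCl, 1 mM MgCl2, 0.1% ascorbic acid pH 7.5, were incubated with 0.5 nM [3H]prazosin at 37° C for 20 min. Nonspecific binding was defined with 10 μM phentolamine; bound ligand was separated by GF/B filtration.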

Another data set concerns canine prostate. The data set can be described thus: In vivo dog prostate model: inhibition of phenylephrine-induced increase in urethral pressure in anesthetized dogs. To be noted: inhibition of phenylephrine-induced increases in urethral pressure, anesthetized dogs.
[2] abbreviates: [3H]prazosin, cloned human α1A receptor, LM(tk−) cell membranes.
The mark [3] stands for this setting: [3H]prazosin, cloned human receptor in LM(tk-) cell membranes, SEM and n in lines below.

Protocol for canine prostate: Protocol for In Vivo Evaluation of Compounds in Canine Prostate
Adult male mongrel dogs more than one year of age were chosen for the model. After induction of general anesthesia using sodium pentobarbital (25 mg/Kg i.v.), the animals were intubated and allowed to breathe spontaneously. An arterial catheter was inserted via the femoral artery to monitor blood pressure and i.v. line was inserted into the leg for fluid and drug administration. A constant saline infusion was maintained at 40 to 50 mL/h. Next, a seven cm lower abdominal incision was made one cm lateral to the penis.
The bladder, prostate and a short segment of urethra were identified and isolated, without damage to the nerves or blood vessels. A cystotomy incision was made through which the pressure catheter was inserted and positioned in the prostatic urethra. The cystotomy was not closed, but the wound edges were sutured to stop bleeding. The tip of the catheter was positioned just distal to the prostate and secured in place with an O-silk tie around the urethra. A second holding suture at the bladder neck secured the catheter in place.
Fluid, either water or saline, was pumped by a Harvard infusion pump at 0.1 mL/min through a Gould pressure transducer into the catheter. The fluid exists at a port in the catheter which is in the prostatic urethra. Occlusion of the port, by contraction of the prostate, blocks the flow and a pressure wave is created. This pressure is transmitted back through the catheter to the transducer which is attached to a Gould recorder. Squeezing the prostate gland caused an increase in urethral pressure which verified the correct position in the urethra.
The compounds were tested as follows: A dose response curve was first generated for phenylephrine alone, in doses ranging from one μg/Kg to 50 μg/Kg. The absolute rise in urethral pressure was recorded for each dose and the next dose given when the urethral pressure returned to baseline. Phenylephrine dose response curves were generated in all animals tested. Increasing doses of compounds were then given, and the phenylephrine dose response curve repeated in the prepense of each dose of the compound. No animal received more than one compound; four animals were used to test each compound. To test for tachyphylaxis, four separate dogs were challenged with repeated phenylephrine doses for six hrs, the usual length of each experiment. From the dose-effect data, the inhibition constant (Ki) and the median-effect dose (ED50) were calculated. Both the Ki and ED50 values given are calculated by using microcomputer software and an IBM-PC.

What is called pA2 is the negative logarithm of the molar antagonist concentration that doubles the agonist concentration needed for the same response. The low end stands for a weaker antagonist, the high end for a more potent antagonist. For orientation: Ki means a dissociation constant, usually derived from enzyme kinetics or from competition with a known ligand. With `CCC1=C(C(N)=O)C(c2ccc([N+](=O)[O-])cc2)C(C(=O)NCCCN2CCC(C#N)(c3ccccc3)CC2)=C(CC)N1` (single isomer, unassigned; (+)) [(+)-102], the pA2 in the data set with human prostatic tissue turned out to be 10.43 ± 0.14. In data set [1] (setting [2]), this compound gave a Ki of 2880 nM.

As a reminder, the melting point is the temperature, or range, at which the solid turns liquid. The compound `CCC1=C(C(N)=O)C(c2ccc([N+](=O)[O-])cc2)C(C(=O)NCCCN2CCC(c3ccccc3)(c3ccccc3)CC2)=C(CC)N1` (stereo not drawn) [Example 42, 5-carboxamido-2,6-diethyl-1,4-dihydro-4-(4-nitrophenyl)-3-{N-[3-(4,4-diphenylpiperidin-1-yl)propyl]}carboxamidopyridine] returned a melting point of 119 to 123 °C. For the same compound, the pA2 in the data set with human prostatic tissue came out at 8.92 ± 0.08. In addition, in data set [1] (setting [3]), the affinity corresponds to a Ki of 447 nM. For the same compound, the “Urethral Pressure K i” value in the data set on canine prostate stood at 9 ± 2.5 nmol/kg.

In the data set on human prostatic tissue, `CCC1=C(C(=O)NCCCN2CCC(c3ccccc3)(c3ccccc3)CC2)C(c2ccc([N+](=O)[O-])cc2)C(C(=O)OC)=C(C)N1` (stereo not drawn) [Example 73, 2-Ethyl-1,4-dihydro-5-methoxycarbonyl-6-methyl-4-(4-nitro) phenyl-3-(N-(3-(4,4-diphenylpiperidin-1-yl)propyl))carboxamidopyridine] showed a pA2 of 8.56 ± 0.07. In data set [1], this compound had an inhibition constant (Ki) of 204 nM.

In turn, `CCC1=C(C(=O)NCCCN2CCC(c3ccccc3)(c3ccccc3)CC2)C(c2ccc([N+](=O)[O-])cc2)C(C(N)=O)=C(C)N1` (stereo not drawn) [Example 81, 5-carboxamido-2-ethyl-1,4-dihydro-6-methyl-4-(4-nitro)phenyl-3-(N-(3-(4,4-diphenylpiperidin-1-yl)propyl))carboxamidopyridine hydrochloride] displayed a pA2 with human prostatic tissue of 8.60 ± 0.03. This compound also had a Ki in data set [1] (setting [3]) of 407 nM.

With `CCC1=C(C(=O)NC)C(c2ccc([N+](=O)[O-])cc2)C(C(=O)NCCCN2CCC(c3ccccc3)(c3ccccc3)CC2)=C(CC)N1` (stereo not drawn) [Example 128, 2,6-Diethyl-1,4-dihydro-5-(N-methyl)carboxamido-4-(4-nitrophenyl)-3-{N-[3-(4,4-diphenylpiperidin-1-yl)propyl]}carboxamidopyridine], the melting point was in the range of 123 to 126 °C. In the data set on human prostatic tissue, this compound displayed a pA2 of 8.21 ± 0.06. The Ki in data set [1] (setting [2]) is 977 nM.

Turning to `CCNC(=O)C1=C(COCCN=[N+]=[N-])NC(CC)=C(C(=O)NCCCN2CCC(c3ccccc3)(c3ccccc3)CC2)C1c1ccc([N+](=O)[O-])cc1` (stereo not drawn) [Example 147, 2-((2-Azidoethyl)oxy)methyl-6-ethyl-3-(N-ethyl)carboxamido-1,4-dihydro-4-(4-nitro)phenyl-5-(N-(3-(4,4-diphenylpiperidin-1-yl-)propyl))carboxamidopyridine], the melting point was in the range of 83 to 87 °C. For the same compound, in data set [1] (setting [2]), the affinity, expressed as Ki, was 372 nM.

For `CCC1=C(C(=O)NCCCN2CCC(c3ccccc3)(c3ccccc3)CC2)C(c2ccc([N+](=O)[O-])cc2)C(C(N)=O)=C(COCCN=[N+]=[N-])N1` (stereo not drawn) [Example 149, 2-((2-Azidoethyl)oxy)methyl-3-carboxamido-6-ethyl-1,4-dihydro-4-(4-nitro) phenyl-5-(N-(3-(4,4-diphenylpiperidin-1-yl)propyl))carboxamidopyridine], the melting point is 87 to 91 °C. In data set [1] (setting [2]), this compound had a Ki of 324 nM.

`CC1=C(C(=O)NCCCN2CCC(c3ccccc3)(c3ccccc3)CC2)C(c2ccc([N+](=O)[O-])cc2)C(C(=O)NC(C)C)=C(C)N1` (stereo not drawn) [Example 156, 1,4-Dihydro-3-(N-isopropyl) carboxamido-2,6-dimethyl-4-(4-nitrophenyl)-5-{N-[3-(^414-diphenylpiperidin-1-yl)propyl]}carboxamidopyridine]: the melting point was in the range of 123 to 125 °C. Besides, in data set [1] (setting [2]), the Ki is 1320 nM.

`CNC(=O)C1=C(C)NC(C)=C(C(=O)NCCCN2CCC(O)(c3ccccc3)CC2)C1c1ccc([N+](=O)[O-])cc1` (stereo not drawn) [Example 162, 1,4-Dihydro-3-{N-[3-(4-hydroxy-4-phenylpiperidin-1-yl)propyl]}carboxamido-2,6-dimethyl-5-(N-methyl)carboxamido-4-(4-nitrophenyl)pyridine] returned a melting point of 87 to 91 °C. The Ki in data set [1] (setting [2]) is 1070 nM.
